Like-named read-outs stand apart in the source and are kept apart here.
Molecular target: T1, E. coli DdlB enzyme (D-alanine:D-alanine ligase) (Escherichia coli, UniProt P07862)
T1 construct: made in house; host or cells: E. coli
Assay: biochemical
Conditions: read-out: DdlB RA; for remaining activity at 2200 µM: tested concentration 2.2 mM; for remaining activity at 1900 µM: tested concentration 1.9 mM; for remaining activity at 1800 µM: tested concentration 1.8 mM; for remaining activity at 2100 µM: tested concentration 2.1 mM; for remaining activity at 1700 µM: tested concentration 1.7 mM; for remaining activity at 2400 µM: tested concentration 2.4 mM; for remaining activity at 2000 µM: tested concentration 2.0 mM; for remaining activity at 2600 µM: tested concentration 2.6 mM; for remaining activity at 2300 µM: tested concentration 2.3 mM

## O=C(O)c1cc(-c2ccccc2Cl)on1 [Compound D717-0173]
Residual activity
  remaining activity at 2200 µM: 107%

## O=c1c(NCc2ccccn2)c(-c2ccccc2)c1=O [Compound E470-0290]
  remaining activity at 1900 µM: 96%

## CN(Cc1ccccc1)c1c(-c2ccccc2)c(=O)c1=O [Compound E470-0301]
  remaining activity at 1800 µM: 103%

## CCN(CC)CCNc1c(-c2ccccc2)c(=O)c1=O [Compound E470-0370]
  remaining activity at 1800 µM: 94%

## O=c1c(-c2ccccc2)c(N2CCOCC2)c1=O [Compound E470-0468]
  remaining activity at 2100 µM: 91%

## COc1ccc(-c2c(Nc3cccc(C)c3)c(=O)c2=O)cc1 [Compound E470-1008]
  remaining activity at 1700 µM: 100%

## O=c1c(-c2ccc(Cl)cc2)c(N2CCOCC2)c1=O [Compound E786-0171]
  remaining activity at 1800 µM: 141%

## O=C(O)Cn1nc(C(F)(F)F)c2c1CCCC2 [Compound F235-1104]
  remaining activity at 2400 µM: 95%

## CCN1CCN(c2ccc(NC(C)=O)c(C(=O)O)c2)CC1 [Compound F687-0683]
Residual activity
  remaining activity at 1700 µM: 94%

## Cc1cc2nc(COC(=O)c3ccco3)cc(=O)n2o1 [Compound G265-0750]
  remaining activity at 1800 µM: 92%

## Cc1cc2nc(COC(=O)C(C)(C)C)cc(=O)n2o1 [Compound G265-0759]
  remaining activity at 1900 µM: 97%

## CCOc1c(Nc2ccc(OC)cc2)c(=O)c1=O [Compound G317-0026]
  remaining activity at 2000 µM: 93%

## CCOc1c(Nc2ccc(F)cc2)c(=O)c1=O [Compound G317-0061]
  remaining activity at 2100 µM: 96%

## O=c1c(O)c(NCc2ccco2)c1=O [Compound G317-0464]
  remaining activity at 2600 µM: 89%

## O=c1c(O)c(N2CCCCCC2)c1=O [Compound G317-0465]
  remaining activity at 2600 µM: 92%

## O=c1c(O)c(N2CCN(c3ccccc3)CC2)c1=O [Compound G317-0478]
  remaining activity at 1900 µM: 96%

## O=c1c(O)c(N2CCc3ccccc3C2)c1=O [Compound G317-0491]
  remaining activity at 2200 µM: 90%

## O=c1c(O)c(NC2CC2)c1=O [Compound G317-0511]
Tested concentration 3.3 mM
  remaining activity at 3300 µM: 90%

## O=c1c(O)c(NCCc2ccccc2)c1=O [Compound G317-0516]
  remaining activity at 2300 µM: 92%

## CC(C)c1ccc(Nc2c(O)c(=O)c2=O)cc1 [Compound G317-0548]
  remaining activity at 2200 µM: 91%

## Cc1cc(Nc2c(O)c(=O)c2=O)no1 [Compound G317-0569]
  remaining activity at 2600 µM: 93%

## O=c1c(O)c(Nc2ccc(CN3CCCCC3)cc2)c1=O [Compound G317-0765]
  remaining activity at 1700 µM: 92%

## CCOC(=O)c1ccc2oc(=O)[nH]c2c1 [Compound G373-0551]
  remaining activity at 2400 µM: 92%

## Cn1cnc(S(=O)(=O)NC2CCCCCCC2)c1 [Compound G404-0427]
Residual activity
  remaining activity at 2200 µM: 91%

## O=C(Nc1ccccc1)Nc1ccc2[nH]c(=O)oc2c1 [Compound G434-0096]
  remaining activity at 1900 µM: 75%

## O=C(Nc1ccc2[nH]c(=O)oc2c1)c1ccc(F)cc1 [Compound G434-0256]
  remaining activity at 1800 µM: 74%

## CCC(=O)Nc1ccc2[nH]c(=O)oc2c1 [Compound G434-0836]
  remaining activity at 2400 µM: 85%

## CCS(=O)(=O)N1CCCc2cc(NC(C)=O)ccc21 [Compound G504-0524]
Residual activity
  remaining activity at 1800 µM: 95%

## O=C(NC1CC(=O)N(c2cccc(F)c2)C1)C1CC1 (centres unmarked) [Compound G856-7454]
  remaining activity at 2300 µM: 91%

## OB(O)c1ccc2[nH]ncc2c1 [Compound H024-0113]
Tested concentration 3.1 mM
  remaining activity at 3100 µM: 93%

## CN(C)Cc1cc2cc(O)c(-c3cccnc3)cc2n1C [Compound H027-0236C]
Residual activity, tested concentration 1.6 mM
  remaining activity at 1600 µM: 84%

## CCc1cc(C2CCCN2S(=O)(=O)CC)on1 (centres unmarked) [Compound J005-1008]
  remaining activity at 1900 µM: 98%

## O=C(O)C1=CC(c2cc(F)cc(F)c2)n2nnnc2N1 (centres unmarked) [Compound J043-0061]
Residual activity
  remaining activity at 2100 µM: 101%

## COc1ccc(CNc2ccccc2C(=O)O)cc1 [Compound K783-0843]
Residual activity
  remaining activity at 1900 µM: 101%

## O=C(O)c1ccccc1NCc1ccccc1Cl [Compound K783-0963]
Residual activity
  remaining activity at 1900 µM: 95%

## O=C1CC(C(=O)O)c2ccccc2N1 (centres unmarked) [Compound K784-1648]
  remaining activity at 2600 µM: 87%

## O=C(O)c1ccccc1C(=O)NCc1ccccc1 [Compound K786-0839]
Fragment library screening
  remaining activity at 2000 µM: 98%

## O=c1[nH]c2ccc(S(=O)(=O)N3CCCCC3)cc2o1 [Compound K893-0198]
  remaining activity at 1800 µM: 100%

## CCOc1c(NC2CCCCC2)c(=O)c1=O [Compound K906-2368]
  remaining activity at 2200 µM: 76%

## CCOc1c(N2CCC(C)CC2)c(=O)c1=O [Compound K906-2369]
  remaining activity at 2200 µM: 71%

## O=c1c(N2CCCC2)c(N2CCCC2)c1=O [Compound K906-4052]
  remaining activity at 2300 µM: 98%

Reference: publication PMC9718554, “Discovery of a fragment hit compound targeting D-Ala:D-Ala ligase of bacterial peptidoglycan biosynthesis” (Journal of Enzyme Inhibition and Medicinal Chemistry, 2022)
